Values after ≈ are worked out from the molar mass of the structure shown. Where two headings read alike, the source gives them in different places.
Assays:
S. aureus ATCC 12601 = assay: MIC assay; type: cell-based; details: Staphylococcus aureus, ATCC12601
Method: (§1) The staphylococci and enterococci were cultured and maintained on Mueller-Hinton Medium (agar and broth) at pH 7.2; they were incubated aerobically at 37° C. for 24 hours.
(§2) This is a standard international method for quantitatively assessing the antimicrobial activity of a compound in a liquid medium. The method used a 96-well microtitre plate, capable of holding about 200 μl of liquid per well. […] The culture media were as described above for the relevant test organisms.
(§3) The wells were inoculated with a liquid suspension of freshly grown micro-organism and incubated under the conditions described above. After incubation, the microtitre plate was examined visually (with the aid of a light box) for cell pellets in and/or opaque wells, which would indicate microbial growth. The MIC value was recorded as the lowest concentration of test compound required to inhibit microbial growth, ie, the lowest concentration for which the liquid in the well remained clear.
(§4) The assays were conducted in duplicate and included both negative (culture medium only) and positive (culture medium, diluting solvent and inoculum) controls.

S. aureus ATCC 12606 = assay: MIC assay; type: cell-based; details: Staphylococcus aureus, ATCC12606
Method: as §1, §2, §3, §4

S. aureus ATCC 25923 = assay: MIC assay; type: cell-based; details: Staphylococcus aureus, ATCC25923
Method: as §1, §2, §3, §4

S. aureus CPHL VISA Mu3 = assay: MIC assay; type: cell-based; details: Staphylococcus aureus
Method: as §1, §2, §3, §4

[1] = system: Staphylococcus aureus ATCC 12600; assay: MIC assay; type: cell-based; details: ATCC12600
Method: as §1, §2, §3, §4

[2] = system: Staphylococcus auricularis ATCC 33753; assay: MIC assay; type: cell-based; details: ATCC33753
Method: as §1, §2, §3, §4

[3] = system: Staphylococcus capitis ATCC 27840; assay: MIC assay; type: cell-based; details: ATCC27840
Method: as §1, §2, §3, §4

[4] = system: Staphylococcus haemolyticus ATCC 29970; assay: MIC assay; type: cell-based; details: ATCC29970
Method: as §1, §2, §3, §4

[5] = system: Staphylococcus hominis ATCC 27844; assay: MIC assay; type: cell-based; details: ATCC27844
Method: as §1, §2, §3, §4

[6] = system: Staphylococcus simulans ATCC 27848; assay: MIC assay; type: cell-based; details: ATCC27848
Method: as §1, §2, §3, §4

[7] = system: Staphylococcus xylosus ATCC 29971; assay: MIC assay; type: cell-based; details: ATCC29971
Method: as §1, §2, §3, §4

S. aureus CPHL EMRSA 15 [8] = assay: MBC assay; type: cell-based; details: Staphylococcus aureus
Method: (§5) Other staphylococcal strains were also tested, as described in Example 5 below. These included certain antibiotic resistant staphylococci, such as the methicillin resistant S. aureus (MRSA) strains EMRSA-15 and EMRSA-16, both available from the Central Public Health Laboratory (CPHL), Colindale, UK. These strains are resistant not only to all beta-lactams but also to a number of other antibiotics in clinical use, making them a serious threat to human health. They are also responsible for the majority (>95%) of hospital-acquired MRSA infections in the UK.
as §1
(§6) This assay, normally carried out after an MIC assay, determines the minimum concentration of a compound that is lethal to the micro-organism being tested.
(§7) These samples were then individually sub-cultured on non-selective agar medium, under the incubation conditions described above. Following incubation they were examined visually for bacterial growth.

S. aureus CPHL EMRSA 16 [9] = assay: MBC assay; type: cell-based; details: Staphylococcus aureus; S. aureus CPHL EMRSA 16 (resistance Met/β-lactams)
Method: as §5, §1, §6, §7

S. aureus CPHL EMRSA 15 [10] = assay: Disc diffusion assay (DDA); type: cell-based, Staphylococcus aureus; details: zone diameter, 200 μg per disc
Method: as §5, §1
(§8) A sterile paper disc was impregnated with a sample of the test compound and a minimum of 30 minutes allowed for the solvents to evaporate as far as possible. The disc was then placed on an agar plate onto which the test micro-organism had been inoculated. The plate was then incubated under the conditions described above, following which it was examined visually for signs of bacterial growth. If the test compound had antimicrobial activity, a circular zone of no growth would be obtained around the disc. The diameter of this zone of “inhibition” was measured using a ProtoCOL™ automated zone sizer (Synbiosis, Cambridge, UK). In general, a greater diameter and/or area of the zone of inhibition indicates a greater antimicrobial activity in the relevant test compound, although other factors such as test compound mobility through the agar gel may also influence the result.
(§9) The area of the zone of inhibition was calculated from the measured zone diameter (D) using the formula π(D/2)^2.

S. aureus CPHL EMRSA 16 [11] = assay: Disc diffusion assay (DDA); type: cell-based, Staphylococcus aureus; details: zone diameter, 200 μg per disc
Method: as §5, §1, §8, §9

P. acnes PRP-053 = assay: MBC assay; type: cell-based, Propionibacterium acnes; details: Cutibacterium acnes, PRP053; P. acnes PRP-053 (resistance Tet/MLS)
Method: Other propionibacterial strains were also tested, as described in Example 8 below. These included certain antibiotic resistant propionibacteria, such as the two P. acnes strains PRP-010 and PRP-053 which are resistant respectively to macrolides-lincosamides-streptogramins-ketolides (MLSK) and to macrolides-lincosamides-streptogramins (MLS) and tetracycline—in other words, PRP-010 is resistant to erythromycin and clindamycin, and […] to erythromycin, clindamycin and tetracycline.
The Propionibacterium spp organisms were cultured and maintained on Wilkins-Chalgren Anaerobe Medium (agar and broth) at pH 6.0; cultures were incubated anaerobically at 37° C. for 72 hours.
as §6, §7

E faecalis ATCC 29212 = assay: MIC assay; type: cell-based; details: Enterococcus faecalis, ATCC29212
Excerpt: 3. Enterococcus faecalis ATCC 29212—this is a Gram-positive bacterium belonging to the genus Enterococcus. Enterococci have similar properties to streptococci, but differ in their ability to grow on bile-salt containing media such as MacConkey's Agar. Their principal habitat is the mammalian gastrointestinal tract. They cause a number of important infections including endocarditis, urinary tract infections and abscesses. In the context of skin, they are frequently isolated from wound infections. Unlike the streptococci, the enterococci have developed widespread resistance to penicillin. More recently, E. faecalis and E. faecium strains have also developed resistance to the glycopeptide antibiotics such as vancomycin. Vancomycin-Resistant Enterococci (VRE), principally vanA strains of E. faecium, now represent a serious healthcare-acquired infection hazard in the USA, Japan and Western Europe. […]
This is a standard international method for quantitatively assessing the antimicrobial activity of a compound in a liquid medium. […]
The wells were inoculated with a liquid suspension of freshly grown micro-organism and incubated under the conditions described above. […] The MIC value was recorded as the lowest concentration of test compound required to inhibit microbial growth, ie, the lowest concentration for which the liquid in the well remained clear. […]

O=C(OOC(=O)c1ccccc1)c1ccccc1 [benzoyl peroxide]
MIC (S. aureus ATCC 12601; S. aureus ATCC 12601, read-out: MIC): 250 µg/mL (≈ 1030 µM)
MIC (S. aureus ATCC 12606; S. aureus ATCC 12606, read-out: MIC): 250 µg/mL (≈ 1030 µM)
MIC (S. aureus ATCC 25923; S. aureus ATCC 25923, read-out: MIC): 250 µg/mL (≈ 1030 µM)
MIC (S. aureus CPHL VISA Mu3): 125 µg/mL (≈ 516 µM)
MIC [1]: 125 µg/mL (≈ 516 µM)
MIC ([2]; Staphylococcus auricularis): 15.6 µg/mL (≈ 64.4 µM)
MIC ([3]; Staphylococcus capitis ATCC 27840, read-out: MIC): 250 µg/mL (≈ 1030 µM)
MIC ([4]; Staphylococcus haemolyticus ATCC 29970, read-out: MIC): 250 µg/mL (≈ 1030 µM)
MIC ([5]; Staphylococcus hominis ATCC 27844, read-out: MIC): 250 µg/mL (≈ 1030 µM)
MIC ([6]; Staphylococcus simulans ATCC 27848, read-out: MIC): > 250 µg/mL
MIC ([7]; Staphylococcus xylosus ATCC 29971, read-out: MIC): 250 µg/mL (≈ 1030 µM)
MBC (S. aureus CPHL EMRSA 15 [8]): 125 to 250 µg/mL (≈ 516 to 1030 µM)
MBC (S. aureus CPHL EMRSA 16 [9]): 250 µg/mL (≈ 1030 µM)
DDA (S. aureus CPHL EMRSA 15 [10]): 10.17 mm
DDA (S. aureus CPHL EMRSA 16 [11]): 10.80 mm
MBC (P. acnes PRP-053): 62.5 µg/mL (≈ 258 µM)
MIC (E faecalis ATCC 29212; E faecalis ATCC 29212, read-out: MIC): > 250 µg/mL

CC(C)(C)c1cc(O)ccc1O [TBHQ, t-butyl hydroquinone]
MIC (S. aureus ATCC 12601): 7.8 µg/mL (≈ 46.9 µM)
MIC (S. aureus ATCC 12606): 7.8 µg/mL (≈ 46.9 µM)
MIC (S. aureus ATCC 25923): 7.8 µg/mL (≈ 46.9 µM)
MIC (S. aureus CPHL VISA Mu3): 3.9 µg/mL (≈ 23.5 µM)
MIC [1]: 3.9 µg/mL (≈ 23.5 µM)
MIC ([2]; Staphylococcus auricularis ATCC 33753, read-out: MIC): 0.98 µg/mL (≈ 5.9 µM)
MIC ([3]; Staphylococcus capitis): 1.95 to 3.9 µg/mL (≈ 11.7 to 23.5 µM)
MIC ([4]; Staphylococcus haemolyticus): 3.9 µg/mL (≈ 23.5 µM)
MIC ([5]; Staphylococcus hominis): 1.95 µg/mL (≈ 11.7 µM)
MIC ([6]; Staphylococcus simulans): 7.8 µg/mL (≈ 46.9 µM)
MIC ([7]; Staphylococcus xylosus): 7.8 µg/mL (≈ 46.9 µM)
MBC (S. aureus CPHL EMRSA 15 [8]; S. aureus CPHL EMRSA 15 (resistance Met/β-lactams), read-out: MBC): 3.9 µg/mL (≈ 23.5 µM)
MBC (S. aureus CPHL EMRSA 16 [9]): 3.9 µg/mL (≈ 23.5 µM)
DDA (S. aureus CPHL EMRSA 15 [10]): 55.14 mm
DDA (S. aureus CPHL EMRSA 16 [11]): 67.72 mm
MBC (P. acnes PRP-053): 7.8 µg/mL (≈ 46.9 µM)
MIC (E faecalis ATCC 29212): 15.6 µg/mL
